This passage reports IC50 results from patent US10759793B2, “2-(pyrazolopyridin-3-yl)pyrimidine derivatives as JAK inhibitors” (ALMIRALL, S.A., priority 2015, dated 2020).

What all share (type): biochemical
The target of one experiment is JAK2 (Homo sapiens (Human), UniProt O60674). Nature of the experiment: In vitro JAK kinase assay (TR-FRET), JAK2. Particulars: catalytic domain aa 826-1132, GST-fusion; ATP 0.2 μM; peptide 20 nM; 30 minutes at room temperature. As for the experimental part: (§1) Compounds were screened for their ability to inhibit JAK1, JAK2 and JAK3 using the assays as indicated below. […] The enzymatic activity was assayed using as substrate a biotinylated peptide, poly (GT)-Biotin (CisBio). […] The degree of phosphorylation was detected by TR-FRET (time-resolved fluorescence energy transfer). […] The enzymatic reactions took place for 30 minutes at room temperature. […] Incubate for 3 h and read on Victor 2V spectrofluorometer (Perkin Elmer) set to read fluorescence resonance energy transfer.
Sequence of JAK2 (O60674 826-1132): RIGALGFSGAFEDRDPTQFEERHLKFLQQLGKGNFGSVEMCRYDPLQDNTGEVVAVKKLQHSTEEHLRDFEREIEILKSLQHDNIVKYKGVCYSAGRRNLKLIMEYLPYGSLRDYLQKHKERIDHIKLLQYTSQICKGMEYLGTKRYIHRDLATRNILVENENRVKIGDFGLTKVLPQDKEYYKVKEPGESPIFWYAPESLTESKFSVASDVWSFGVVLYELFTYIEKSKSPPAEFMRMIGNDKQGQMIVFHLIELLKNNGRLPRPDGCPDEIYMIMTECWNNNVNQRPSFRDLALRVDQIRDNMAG

For the next experiment, the target named is JAK3 (Homo sapiens (Human), UniProt P52333). Description: In vitro JAK kinase assay (TR-FRET), JAK3. Particulars: catalytic domain aa 795-1124, GST-fusion; ATP 0.6 μM; peptide 140 nM; 30 minutes at room temperature. On the procedure:
as §1
(In general: Time-resolved FRET reads energy transfer from a long-lived donor to a nearby acceptor.)

The target of a further experiment is JAK1 (Homo sapiens (Human), UniProt P23458). Nature of the experiment: In vitro JAK kinase assay (TR-FRET), JAK1. Particulars: catalytic domain aa 850-1154, GST-fusion; ATP 3 μM; peptide 60 nM; 30 minutes at room temperature. As for the experimental part: as §1
Sequence of JAK1 (P23458 850-1154): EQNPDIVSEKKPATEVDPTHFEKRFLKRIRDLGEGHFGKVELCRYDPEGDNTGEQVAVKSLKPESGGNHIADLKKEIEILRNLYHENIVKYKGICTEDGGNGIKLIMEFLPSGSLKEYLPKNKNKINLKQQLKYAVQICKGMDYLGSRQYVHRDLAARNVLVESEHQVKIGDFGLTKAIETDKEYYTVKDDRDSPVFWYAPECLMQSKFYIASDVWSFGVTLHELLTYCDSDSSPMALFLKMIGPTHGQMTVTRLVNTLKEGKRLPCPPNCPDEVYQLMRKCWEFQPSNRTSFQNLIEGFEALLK

pIC50: −log10 of the molar value.

Sequence of JAK3 (P52333 795-1124): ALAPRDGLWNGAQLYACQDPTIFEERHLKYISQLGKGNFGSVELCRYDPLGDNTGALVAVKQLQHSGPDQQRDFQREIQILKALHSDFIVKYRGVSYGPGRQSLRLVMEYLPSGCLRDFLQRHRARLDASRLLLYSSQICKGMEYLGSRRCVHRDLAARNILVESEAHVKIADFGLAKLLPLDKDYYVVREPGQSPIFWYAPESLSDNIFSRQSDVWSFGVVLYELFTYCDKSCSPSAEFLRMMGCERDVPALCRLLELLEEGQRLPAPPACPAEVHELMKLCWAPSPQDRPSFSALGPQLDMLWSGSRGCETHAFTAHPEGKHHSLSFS

The pIC50 is the IC50 on a negative log10 scale, so that one unit is a factor of ten. Low values mean a large IC50, high ones a small IC50. As to `Cc1cc(-c2cc(N[C@@H]3CCCN(C(=O)CO)C3)nc(-c3cnn4ccccc34)n2)cc(C)n1` [Example 101, 2-((3R)-3-{[6-(2,6-Dimethylpyridin-4-yl)-2-pyrazolo[1,5-a]pyridin-3-ylpyrimidin-4-yl]amino}piperidin-1-yl)-2-oxoethanol], the negative-log IC50 (pIC50) on JAK2 is 9.00; against JAK3 it was 9.00; against JAK1 it was 8.70.
Consider `O=C(CO)N1CCC[C@@H](Nc2nc(-c3cnn4ccccc34)nc(-c3cn[nH]c3)c2F)C1` [Example 32, 2-((3R)-3-{[5-Fluoro-2-pyrazolo[1,5-a]pyridin-3-yl-6-(1H-pyrazol-4-yl)pyrimidin-4-yl]amino}piperidin-1-yl)-2-oxoethanol], for which the negative-log IC50 (pIC50) against JAK2 was 9.22; against JAK3, 8.40; against JAK1, 8.70.
The corresponding values for `CN(C)CCOc1nc(-c2cnn3ccccc23)nc(N[C@H]2CC[C@H](CC#N)CC2)c1F` [Example 9, [trans-4-({6-[2-(dimethylamino)ethoxy]-5-fluoro-2-pyrazolo[1,5-a]pyridin-3-ylpyrimidin-4-yl}amino)cyclohexyl]acetonitrile] are 9.15, 8.52 and 7.07.
For `CCOCCOc1nc(-c2cnn3ccccc23)nc(N[C@@H]2CCCN(C(=O)CC#N)C2)c1F` [Example 16, 3-((3R)-3-{[6-(2-ethoxyethoxy)-5-fluoro-2-pyrazolo[1,5-a]pyridin-3-ylpyrimidin-4-yl]amino}piperidin-1-yl)-3-oxopropanenitrile] the same measures were 9.15, 9.00 and 8.40.
For the compound `N#Cc1cnc(N2CCC[C@@H](Nc3nc(-c4cnn5ccccc45)nc(OCCO)c3F)C2)nc1` [Example 57, 2-((3R)-3-{[5-fluoro-6-(2-hydroxyethoxy)-2-pyrazolo[1,5-a]pyridin-3-ylpyrimidin-4-yl]amino}piperidin-1-yl)pyrimidine-5-carbonitrile], the pIC50 on JAK2 is 8.70; at JAK3, 8.70; at JAK1, 7.72.
As to `CCOC(=O)C1CCN(c2nc(-c3cnn4ccccc34)nc(N[C@@H]3CCCN(C(=O)CC#N)C3)c2F)CC1` [Example 30, Ethyl 1-(6-{[(3R)-1-(cyanoacetyl)piperidin-3-yl]amino}-5-fluoro-2-pyrazolo[1,5-a]pyridin-3-ylpyrimidin-4-yl)piperidine-4-carboxylate], the pIC50 at JAK2 is 9.22; at JAK3, 8.70; against JAK1, 8.40.
For the compound `O=C(CO)N1CCC[C@@H](Oc2nc(-c3cnn4ccccc34)nc(N3CCOCC3)c2F)C1` [Example 52, 2-{(3R)-3-[(5-Fluoro-6-morpholin-4-yl-2-pyrazolo[1,5-a]pyridin-3-ylpyrimidin-4-yl)oxy]piperidin-1-yl}-2-oxoethanol], the figures for the pIC50 on JAK2, on JAK3 and on JAK1 were 9.00, 7.96 and 7.96, respectively.
With `N#CC[C@H]1CC[C@H](Nc2nc(-c3cnn4ccccc34)nc(N3CCNCC3)c2F)CC1` [Example 3, {Trans-4-[(5-fluoro-6-piperazin-1-yl-2-pyrazolo[1,5-a]pyridin-3-ylpyrimidin-4-yl)amino]cyclohexyl}acetonitrile], the figures for the pIC50 at JAK2, against JAK3 and against JAK1 were 9.10, 8.40 and 6.82, respectively.
The corresponding values for `Cc1ccn2ncc(-c3nc(N[C@@H]4CCCN(C(=O)CO)C4)c(F)c(N4CCOCC4)n3)c2c1` [Example 29, 2-((3R)-3-{[5-Fluoro-2-(5-methylpyrazolo[1,5-a]pyridin-3-yl)-6-morpholin-4-ylpyrimidin-4-yl]amino}piperidin-1-yl)-2-oxoethanol] are 8.40, 8.00 and 7.57.
On to `CN1CCN(c2nc(-c3cnn4ccccc34)nc(N[C@@H]3CCCN(C(=O)CO)C3)c2F)CC1` [Example 25, 2-((3R)-3-{[5-fluoro-6-(4-methylpiperazin-1-yl)-2-pyrazolo[1,5-a]pyridin-3-ylpyrimidin-4-yl]amino}piperidin-1-yl)-2-oxoethanol], for which the negative-log IC50 (pIC50) against JAK2 was 9.22; on JAK3, 8.70; against JAK1, 7.66.
As for `N#CCC(=O)N1CCC[C@@H](Oc2nc(-c3cnn4ccccc34)nc(-c3ccnc(CO)c3)c2F)C1` [Example 73, 3-[(3R)-3-({5-Fluoro-6-[2-(hydroxymethyl)pyridin-4-yl]-2-pyrazolo[1,5-a]pyridin-3-ylpyrimidin-4-yl}oxy)piperidin-1-yl]-3-oxopropanenitrile], the pIC50 on JAK2 is 8.70; on JAK3, 7.57; at JAK1 it was 7.89.
Turning to `CN(C)c1ccc(-c2nc(-c3cnn4ccccc34)nc(N[C@@H]3CCCN(C(=O)CO)C3)c2F)cn1` [Example 81, 2-[(3R)-3-({6-[6-(Dimethylamino)pyridin-3-yl]-5-fluoro-2-pyrazolo[1,5-a]pyridin-3-ylpyrimidin-4-yl}amino)piperidin-1-yl]-2-oxoethanol], the pIC50 was 9.00 against JAK2, 8.70 against JAK3 and 8.52 at JAK1.
With `COc1nc(-c2cnn3ccccc23)nc(O[C@@H]2CCCN(C(=O)CC#N)C2)c1F` [Example 64, 3-{(3R)-3-[(5-Fluoro-6-methoxy-2-pyrazolo[1,5-a]pyridin-3-ylpyrimidin-4-yl)oxy]piperidin-1-yl}-3-oxopropanenitrile], the pIC50 is 8.52 at JAK2, 8.40 against JAK3 and 7.55 at JAK1.
For `O=C(CO)N1CCC[C@@H](Nc2nc(-c3cnn4ccccc34)nc(-c3cccnc3)c2F)C1` [Example 62, 2-{(3R)-3-[(5-Fluoro-2-pyrazolo[1,5-a]pyridin-3-yl-6-pyridin-3-ylpyrimidin-4-yl)amino]piperidin-1-yl}-2-oxoethanol] the same measures were 9.00, 8.15 and 8.40.
As for `N#CCC(=O)N1CCC[C@@H](Nc2nc(-c3cnn4ccccc34)nc(N3CCC(C(=O)O)CC3)c2F)C1` [Example 31, 1-(6-{[(3R)-1-(Cyanoacetyl)piperidin-3-yl]amino}-5-fluoro-2-pyrazolo[1,5-a]pyridin-3-ylpyrimidin-4-yl)piperidine-4-carboxylic acid], the negative logarithm of the IC50 (pIC50) at JAK2 is 9.40; at JAK3, 8.70; against JAK1 it was 9.00.
Consider `COCCOc1nc(-c2cnn3ccccc23)nc(N[C@@H]2CCCN(C(=O)CO)C2)c1F` [Example 39, 2-((3R)-3-{[5-Fluoro-6-(2-methoxyethoxy)-2-pyrazolo[1,5-a]pyridin-3-ylpyrimidin-4-yl]amino}piperidin-1-yl)-2-oxoethanol], for which the negative logarithm of the IC50 (pIC50) against JAK2 was 9.10; against JAK3, 8.52; against JAK1, 7.96.
As to `CC(C)Oc1nc(-c2cnn3ccccc23)nc(N[C@@H]2CCCN(C(=O)CO)C2)c1F` [Example 51, 2-{(3R)-3-[(5-Fluoro-6-isopropoxy-2-pyrazolo[1,5-a]pyridin-3-ylpyrimidin-4-yl)amino]piperidin-1-yl}-2-oxoethanol], the values for the pIC50 against JAK2, against JAK3 and at JAK1 were 8.70, 8.52 and 7.44, respectively.
The corresponding values for `O=C(CO)N1CCC[C@@H](Oc2nc(-c3cnn4ccccc34)nc(NCCO)c2F)C1` [Example 69, 2-[(3R)-3-({5-Fluoro-6-[(2-hydroxyethyl)amino]-2-pyrazolo[1,5-a]pyridin-3-ylpyrimidin-4-yl}oxy)piperidin-1-yl]-2-oxoethanol] are 8.52, 7.96 and 7.43.
In the case of `O=C(CO)N1CCC[C@@H](Nc2nc(-c3cnn4ccccc34)nc(OCCO)c2F)C1` [Example 40, 2-((3R)-3-{[5-Fluoro-6-(2-hydroxyethoxy)-2-pyrazolo[1,5-a]pyridin-3-ylpyrimidin-4-yl]amino}piperidin-1-yl)-2-oxoethanol], the pIC50 against JAK2 was 9.10; at JAK3, 8.70; against JAK1, 8.40.
The corresponding values for `CN1CCN(c2nc(-c3cnn4ccccc34)nc(O[C@@H]3CCCN(C(=O)CO)C3)c2F)CC1` [Example 67, 2-((3R)-3-{[5-Fluoro-6-(4-methylpiperazin-1-yl)-2-pyrazolo[1,5-a]pyridin-3-ylpyrimidin-4-yl]oxy}piperidin-1-yl)-2-oxoethanol] are 8.30, 7.64 and 6.86.
On to `O=C(CO)N1CCC[C@@H](Oc2nc(-c3cnn4ccccc34)nc(N3CCC(O)CC3)c2F)C1` [Example 75, 1-(5-Fluoro-6-{[(3R)-1-glycoloylpiperidin-3-yl]oxy}-2-pyrazolo[1,5-a]pyridin-3-ylpyrimidin-4-yl)piperidin-4-ol], for which the pIC50 against JAK2 is 8.40; on JAK3, 7.59; on JAK1, 7.54.
For `O=C(CO)N1CCC[C@@H](Oc2nc(-c3cnn4ccccc34)nc(OCCO)c2F)C1` [Example 65, 2-((3R)-3-{[5-Fluoro-6-(2-hydroxyethoxy)-2-pyrazolo[1,5-a]pyridin-3-ylpyrimidin-4-yl]oxy}piperidin-1-yl)-2-oxoethanol], the pIC50 against JAK2 was 8.70; on JAK3, 8.05; on JAK1, 7.42.
For the compound `CN(C)C1CCN(c2nc(-c3cnn4ccccc34)nc(N[C@H]3CC[C@H](CC#N)CC3)c2F)CC1` [Example 4, [Trans-4-({6-[4-(dimethylamino)piperidin-1-yl]-5-fluoro-2-pyrazolo[1,5-a]pyridin-3-ylpyrimidin-4-yl}amino)cyclohexyl]acetonitrile], the pIC50 against JAK2 was 9.00; on JAK3, 8.40; on JAK1, 6.66.
